Data taken from article PMC11579541, “In vitro, in vivo, and in silico approaches for evaluating the preclinical DMPK profiles of ammoxetine, a novel chiral serotonin and norepinephrine reuptake inhibitor” (Frontiers in Pharmacology, 2024).
Converted amounts (≈) assume the structure as drawn.

What was measured:
[1] = Configurational stability study (in vivo chiral inversion); set-up: species or system SD rats; details: rat plasma 2 h after 50 mg/kg oral, chiral HPLC
Experimental: Twelve SD rats were divided into three groups: a blank control group, an S-071031B group (50 mg/kg), and an R-071031B group (50 mg/kg). Prior to administration, the animals underwent a 12-h fasting period while having access to water. At 2 h post-dosing, the rats were anesthetized, and blood samples were collected from the abdominal aorta into heparinized tubes. Plasma samples were obtained by centrifuging the collected blood at 2,000×g for 10 min to remove blood cells. Subsequently, 1 mL of plasma sample was mixed with 100 μL of 0.1% sodium hydroxide solution and 4 mL of ether. After centrifugation at 2,000×g for 10 min, the upper organic phase within each group was combined, transferred to a new tube, and dried under a stream of nitrogen. The resulting residues were reconstituted with 100 μL of methanol for subsequent HPLC analysis.
A chiral chromatographic column was employed to separate the enantiomers, and the RT of X-071031B (racemic 071031B) and S-071031B (ammoxetine) standards were determined for identification. Plasma samples were collected from rats 2 h after oral administration of 50 mg/kg of S-071031B or R-071031B. The presence of a chromatographic peak at the RT corresponding to the opposite enantiomer following the administration of the S-isomer would indicate the conversion of the S-isomer to the R-isomer in rats. […]

[2] = test system: MDCK-MDR1 cells; assay: MTT cytotoxicity assay; assay type: cell-based, canine
Experimental: (§1) MDCK-MDR1 cells at passage 17 were cultured in DMEM supplemented with 10% FBS, 1% glutamine, 100 U/mL penicillin/streptomycin, 1% NEAA, and 1 mmol/L sodium pyruvate. The cells were incubated overnight at 37°C with 5% CO2 and a relative humidity of 90%. Once the cells reached approximately 80% confluence, they were treated with a 0.25% trypsin/EDTA solution to dissociate the cells. Subsequently, the cells were seeded at a density of 5 × 10^5 cells/cm^2 in Millicell-96 well plates (Millipore, Burlington, USA). Prior to conducting the experiments, the integrity of the cell monolayer was confirmed by measuring transepithelial electrical resistance (TEER) using a Millicell ERS® meter (Millipore, Burlington, USA). A TEER value greater than 400 Ω cm^2 was required to ensure the formation and preservation of tight junctions.
(§2) The ability of ammoxetine to inhibit the growth of MDCK-MDR1 cells was evaluated using the MTT assay. Ammoxetine was diluted with transport buffer [Hank’s balanced salt solution (HBSS) containing 6.0 g HEPES, pH 7.2–7.4] from a stock solution (2 mg/mL) dissolved in HBSS to create a series of standard concentrations: 1.28, 6.4, 32, 160, 800 ng/mL and 4, 20, 100, 500 μg/mL. Prior to the assay, the cell culture medium was aspirated and replaced with different standard concentrations of ammoxetine (100 μL/well, n = 6). The cells were then incubated at 37°C for 3 h. Following the incubation, 20 μL of MTT solution (5 mg/mL) was added to each well, and the incubation was continued for 4 h. Subsequently, the solution in each well was discarded, and 150 μL of dimethyl sulfoxide was added. After vortexing for 10 min, the absorbance was measured at 570 nm using a Varioskan® Flash multimode reader (Thermo Fisher Scientific, Waltham, USA). Blank control solutions, consisting of HBSS without ammoxetine, were also applied to the cells. The absorbance values were then used to calculate the relative growth rate (RGR, %) of cells using the formula RGR = ODammoxetine/ODblank × 100%, where ODammoxetine and ODblank represent the mean absorbance values of six parallel measurements in the ammoxetine and blank control solutions, respectively ([Ji et al., 2024]). The Prism 5 software (GraphPad Software, Inc., San Diego, USA) was used to determine the 50% toxic concentration (TC50) value of ammoxetine.

[3] = MTT cytotoxicity assay; assay type: cell-based, canine; details: dog, MDCK-MDR1 cells; 0–20 μg/mL, 3 h; read-out: cellular inhibition rate
Experimental: as §1, §2

- chiral inversion in vivo [1]: does not undergo conversion to R-071031B
Structure (SMILES): CNCC[C@H](Oc1cccc2c1OCO2)c1cccs1 [ammoxetine]
- RGR (%) ([2]; 0.16 μg/mL): 103.48±9.43%
- RGR (%) ([2]; 0.80 μg/mL): 102.55±18.09%
- RGR (%) ([2]; 4 μg/mL): 103.59±20.82%
- RGR (%) ([2]; 20 μg/mL): 89.16±12.89%
- RGR (%) ([2]; 100 μg/mL): 55.53±7.87%
- RGR (%) ([2]; 500 μg/mL): 24.49±2.36%
- RGR (%) ([2]; 1.28×e-3 μg/mL): 113.13±22.65%
- RGR (%) ([2]; 3.20×e-2 μg/mL): 103.57±14.18%
- RGR (%) ([2]; 6.40×e-3 μg/mL): 114.88±14.68%
- TC50 ([2]; 50% toxic concentration from ln concentration-RGR curve): 79.76 ± 18.94 µg/mL (≈ 274 µM)
- inhibition at 3 h [3]: < 10%
